Where a name gives a salt, the structure may show the parent alone. Read-outs that look alike come from different tables or passages of the source.
Experiments:
[1] = Plasma pharmacokinetics in mice, routes of administration; format: in vivo; details: for Vd: read-out: Vss
Method: Pharmacokinetic studies were carried out on various liposomal formulations of GI147211 in rats and mice by IV bolus administration. Plasma samples were precipitated with acetonitrile and the supematant for each sample was analyzed by reverse phase HPLC using isocratic elution and monitoring fluorescence. […] Concentration values were determined for unknown samples and quality control samples based on interpolation using a linear fit of the standard samples. In each study the average plasma concentration at each time point was calculated and utilized in the pharmacokinetic analysis. Noncompartmental analysis were carried out using WinNonlin™ (Standard Edition, version 1.5 ©, Scientific Consulting, Inc.) and the following parameters were calculated: the maximum concentration extrapolated at zero time (Cmax), the area under the curve from zero to infinite time (AUC total), the terminal phase half life (t½), the clearance rate (C1), and the volume of distribution at steady state (Vss).
Animals received a 1 mg/kg dose by intravenous (I.V.) intraperatoneal (I.P.) or subcutaneous administration and plasma samples were collected over 24 hours.

[2] = tested on: B16-F1 (Melanoma, murine); experiment: 3H-thymidine incorporation cytotoxicity assay, B16-F1; format: cell-based; details: Mus musculus, B16-F1, 24 h; read-out: Median IC50
Method: (§1) In vitro efficacy screening has been performed using GI147211 and liposomal formulations of GI147211. […] Standard tumor cell-based cytototoxicity assays assessing ^3H-thymidine incorporation were performed.
(§2) Tumor cells were seeded into 96-well tissue culture plates (1×10^4 cells/well)≡4 h prior to experimentation. […] Positive and negative (Tris treated) control groups were included on each assay plate. Tumor cells were then labeled with 0.25 μCi of [methyl-^3H] thymidine and incubated for 42 h under tissue culture conditions (37° C., 5% CO2, 100% relative humidity), except for C6, U251, A673 and B16-F1 cells which were incubated for 24 h. Cells were then lysed, harvested onto glass-fiber filters and unincorporated [methyl-^3H] thymidine removed by filter washing. Filters were processed for scintillation counting and cpm-^3H/well determined. […] Data are presented from multiple sets of experimentation, involving multiple liposomal formulations of GI147211.

[3] = tested on: DU-145 (prostate carcinoma); experiment: 3H-thymidine incorporation cytotoxicity assay, DU-145; format: cell-based, human; details: Homo sapiens, DU-145, 42 h; read-out: Median IC50
Method: as §1, §2

[4] = tested on: KBV (oralpharyngial carcinoma, vincristine resistant phenotype); experiment: 3H-thymidine incorporation cytotoxicity assay, KBV; format: cell-based, human; details: Homo sapiens, 42 h, read-out: Median IC50
Method: as §1, §2

LS-513 (Cecum) = experiment: 3H-thymidine incorporation cytotoxicity assay, LS-513; format: cell-based, human; details: Homo sapiens, LS-513, 42 h; read-out: Median IC50
Method: as §1, §2

KB Head/Neck Tumor = experiment: Xenograft efficacy at identical dose, KB; format: in vivo, nude mice; details: for Log 10 Cell Kill / T-C (time to reach 1,000% Tumor Volume, treated vs control): QD7 × 3; for % TGI: QD7 × 3, day 22
Method: (§3) In all the studies performed, subcutaneous tumors implanted on the anterior flank of nude mice were allowed to grow to an established size of 200+/−50 mm^3 prior to dosing drugs.
(§4) The xenograft models included the HT29 and SW48 human colon tumor lines, and the KB and KBV head-neck tumors. Drugs were dosed at either 6 or 9 mg/kg intravenously, on a weekly schedule for 3 consecutive weeks. In the SW48 xenograft study, the animals received a total of two cycles of therapy (6 injections), with a 10 day recovery period separating the two therapeutic courses. In the HT29 xenograft study a 12 and 14 mg/kg dose group was added.

[5] = tested on: KBV Head/Neck Tumor MDR +; format: in vivo
Method: as §3, §4

KB Tumor Xenograft = experiment: Repeat dose efficacy, KB xenograft; format: in vivo, nude mice; details: 14 mg/kg
Method: Drugs were dosed on days 1,8 and 15.

[6] = mouse, plasma, iv, 1 mg/kg, 1 mg/kg IV bolus
[7] = mouse, plasma, iv, 1 mg/kg, I.V.

## CCC1(O)C(=O)OCc2c1cc1n(c2=O)Cc2c-1nc1cc3c(cc1c2CN1CCN(C)CC1)OCCO3 (stereo in doubt) [GI147211, 7-(4-methylpiperazinomethylene)-10,11-ethylenedioxy-20(S)-camptothecin dihydrochloride]
[1]; 1 mg/kg IV bolus
  AUC (total): 140 ng·h/mL
[1]; 1 mg/kg, I.P.
  AUC (total): 47 ng·h/mL
[1]; 1 mg/kg, I.V.
  AUC (total): 140 ng·h/mL
  Cmax: 80 ng/mL
[1]; 1 mg/kg, Sub. Q
  AUC (total): 55 ng·h/mL
[1]; mouse, plasma, 1 mg/kg IV bolus, read-out: Cmax
  Cmax: 80 ng/mL
[1]; mouse, plasma, 1 mg/kg IV bolus, read-out: t½ (converted)
  half-life: 113 min
[1]; mouse, plasma, ip, 1 mg/kg, I.P.
  Tmax: 15 min
[1]; mouse, plasma, ip, 1 mg/kg, I.P., read-out: Cmax
  Cmax: 56 ng/mL
[1]; [6]
  clearance: 122 mL/min/kg
  Vd: 17.6 L/kg
[1]; [7]
  Tmax: 0 min
  clearance: 122 mL/min/kg
  Vd: 17.6 L/kg
[1]; mouse, plasma, subcutaneous, 1 mg/kg, Sub. Q
  Tmax: 15 min
[1]; mouse, plasma, subcutaneous, 1 mg/kg, Sub. Q, read-out: Cmax
  Cmax: 42 ng/mL
[2]
  IC50: 0.111 µg/mL
[3]
  IC50: 0.00161 µg/mL
[4]
  IC50: 0.584 µg/mL
LS-513 (Cecum)
  IC50: 0.00489 µg/mL
KB Head/Neck Tumor; 6 mg/kg iv
  Log 10 Cell Kill: 0.87
  T-C (time to reach 1,000% Tumor Volume, treated vs control): 9 days
  % TGI: 54%
KB Head/Neck Tumor; 9 mg/kg iv
  Log 10 Cell Kill: 1.64
  T-C (time to reach 1,000% Tumor Volume, treated vs control): 17 days
  % TGI: 73%
[5]; KBV, 9 mg/kg iv, QD7 × 3
  Log 10 Cell Kill: 0.125
  T-C (time to reach 1,000% Tumor Volume, treated vs control): 2 days
[5]; KBV, 9 mg/kg iv, QD7 × 3, day 18
  % TGI: 11%
[5]; identical dose and schedule
  activity in the MDR+ tumor model KBV: essentially inactive
KB Tumor Xenograft; day 15
  % TGI: 83%
KB Tumor Xenograft; days 1, 8 and 15
  Mean Tumor Volume +/− (SD): 275 (67)
  Toxic Deaths: 0/8
